The subject of experiment [1] is rat meningeal fibroblasts (RMF). Nature of the experiment: Stripe assay, RMF. The experiment is classed as cell-based. Particulars: for DS-PG Effect on Adhesion, Migration and Invasion: 2 days following plating. Further details: key: Bands that were completely inhibitory to cell adhesion, migration and/or invasion were evaluated as (−); those allowing limited cell adhesion, migration and/or invasion (+/−); those permissive to cell adhesion, migration and/or invasion as (+). On the procedure:
(§1) Primary Cell Cultures. Primary cultures of rat meningeal fibroblasts (RMF) were obtained from P-3 rat pups. The tissue was removed from the animals and transferred to Leibovitz's L-15 with L-glutamine medium. The tissue was then cut into small pieces with a scalpel blade, enzymatically dissociated with 0.25% trypsin in Ca^2+/Mg^2+ free Hank's balanced salt solution (CMF-HBSS, Gibco Laboratories) for 20 minutes at 37° C., and mechanically triturated. The cells were rinsed with DMEM plus 10% FCS, concentrated by centrifugation and subsequently diluted in DMEM with 10% FCS for plating at 5.0×10^6 cells per 75 cm^2 flask. Adult rat sciatic nerve fibroblasts (RSF) were obtained by explantation of 1 mm sections of adult rat sciatic nerve.
(§2) The stripe assay was performed essentially as described by Snow et al. (1990, Exp. Neural. 309:111-130). Tissue culture Petri dishes (Falcon, 60 mm) were precoated with 0.5 ml of a mixture of 5 cm^2 section nitrocellulose (Schleicher & Schuell, Type BA 85) dissolved in 6 ml methanol, and air dried in a laminar flow hood. Cellulose filter paper (Whatman #1) was cut into 12×0.35 mm strips with a McIlwain tissue chopper (The Mickle Laboratory Engineering Co., LTD). A strip of filter paper was soaked in 20 μl of a solution of DS-PG or KS/CS-PG and LN at given concentration, blotted onto the nitrocellulose-coated dish for 30 sec. and removed. The test solution was allowed to air dry. This process was repeated several times creating clearly defined, equally spaced parallel bands of uniform width on the plates. A thin layer of 0.1 or 1 mg/ml LN was then spread evenly across the bands with a bent glass Pasteur pipet, and covered with culture medium (FIG. 1).
(§3) Plates were seeded with cell suspensions of 2.0×10^5 cells/ml or 4-10 DRG explants. The cultures were assessed for degree of adhesion, migration and/or invasion of the DS-PG or KS/CS-PG bands over a period of up to 7 days using a Leitz Fluovert microscope.
(§4) Bands that were completely inhibitory to cell adhesion, migration and/or invasion were evaluated as (−), those allowing limited cell adhesion, migration and/or invasion (+/−), and those permissive to cell adhesion, migration and/or invasion as (+). cell adhesion was defined as the initial interaction between the cell surface and the substratum which results in cell attachment and spreading. Cell migration was operationally defined as cell movement within the same substratum, and cell invasion was operationally defined as cell movement from one type of substratum to another type of substratum.

Experiment [2] deals with adult rat sciatic nerve fibroblasts (RSF). Nature of the experiment: Stripe assay, RSF. The experiment is classed as cell-based. Further details: key: Bands that were completely inhibitory to cell adhesion, migration and/or invasion were evaluated as (−); those allowing limited cell adhesion, migration and/or invasion (+/−); those permissive to cell adhesion, migration and/or invasion as (+). As to conditions: for DS-PG Effect on Adhesion, Migration and Invasion: 2 days following plating. On the procedure: as §1, §2, §3, §4

Experiment [3] has as its system rat astrocytes (RAST). Nature of the experiment: Stripe assay, RAST. As to conditions: for DS-PG Effect on Adhesion, Migration and Invasion: 2 days following plating. Format: cell-based. Further details: key: Bands that were completely inhibitory to cell adhesion, migration and/or invasion were evaluated as (−); those allowing limited cell adhesion, migration and/or invasion (+/−); those permissive to cell adhesion, migration and/or invasion as (+). On the procedure: Rat astrocytes (RAST) cultures were prepared from P-1-3 rat brain cortices. The cortices were stripped of connective tissue and blood vessels, cut into small pieces and dissociated in 0.5% collagenase (Gibco Laboratories) for 20 min at 37° C., followed by further dissociation in 0.25% trypsin for 15 min, and 0.04 mg/ml DNAse (Sigma) and 0.52 mg/ml soy bean trypsin inhibitor for 5 min at 37° C. The cells were subsequently mechanically dissociated by trituration with a Pastuer pipette and plated at 1.5×10^7 cells in a poly-L-lysine (PLL, Sigma) coated 75 cm^2 flask. The flask was shaken 4 hrs following plating to remove less adherent non-astrocytic oligodendrocytes and neurons.
as §2, §3, §4

Experiment [4] relates to rat C6 glioma. Nature of the experiment: Stripe assay, C6. The experiment is classed as cell-based. More on the design: key to DS-PG Effect on Adhesion, Migration and Invasion / Effect of KS/CS-PG on Cell Migration: Bands that were completely inhibitory to cell adhesion, migration and/or invasion were evaluated as (−); those allowing limited cell adhesion, migration and/or invasion (+/−); those permissive to cell adhesion, migration and/or invasion as (+). Particulars: for DS-PG Effect on Adhesion, Migration and Invasion / Effect of KS/CS-PG on Cell Migration: C6; for DS-PG Effect on Adhesion, Migration and Invasion: 2 days following plating. On the procedure: (§5) Cell lines. Murine 3T3 fibroblast (NIH), rat C6 glioma (Paganetti et al., 1988, J. Cell Biol. 107:2281) and MCG-28 young immortalized mouse astrocyte (a murine neonatal astrocyte line immortalized with SV-40) were grown in medium composed of Dulbecco's modified Eagle medium (DMEM), 10% fetal calf serum (Gibco Laboratories), and penicillin G/streptomycin (100 units/ml, 100 μg/ml respectively, Gibco Laboratories). For the stripe assay, confluent plates were disaggregated with 0.05% trypsin, 0.53 mM EDTA (Gibco Laboratories) and seeded at 200,000 cells/ml (3 ml/plate). For the cell adhesion assays, confluent cultures were disaggregated with 0.03% EDTA and plated in a 96-well microtiter plate at 20,000-100,000 cells per well. PC12 cells, a pheochromocytoma cell line (Green L. A. & Tischler A. S., 1976, Proc. Natl. Acad. Sci. U.S.A. 73:2424), were grown in medium containing Roswell Park Memorial Institute (RPMI) medium 1640 (Gibco Laboratories), 10% horse serum, 5% fetal calf serum (FCS), and penicillin G/streptomycin (100 units/ml, 100 μg/ml respectively, Gibco Laboratories). The cells were disaggregated with 0.03% EDTA and plated in a 96-well microtiter plate at 3,000 cells per well.
as §2, §3, §4

Experiment [5] concerns MCG-28 young immortalized mouse astrocyte. Nature of the experiment: Stripe assay, MCG-28. The experiment is classed as cell-based. More on the design: key: Bands that were completely inhibitory to cell adhesion, migration and/or invasion were evaluated as (−); those allowing limited cell adhesion, migration and/or invasion (+/−); those permissive to cell adhesion, migration and/or invasion as (+). Particulars: MCG28; for DS-PG Effect on Adhesion, Migration and Invasion: 2 days following plating. As to the method:
as §5, §2, §3, §4

For experiment [6], the system named is epidural fibrosis at laminectomy site, Lewis inbred rats. Nature of the experiment: Epidural fibrosis after lumbar laminectomy in rats, gross evaluation. As to conditions: Table 4; 20 mg/ml; 4 weeks post-implantation. The experiment is classed as in vivo, rat. More on the design: scale not given here.
The mark [7] stands for this setting: 0.1 mg/ml DS-PG + 20 μg/ml LN stripes.
[8] abbreviates: 0.2 mg/ml DS-PG + 20 μg/ml LN stripes.
Where [9] appears, read: 0.4 mg/ml DS-PG + 20 μg/ml LN stripes.
Setting [10] is: 0.8 mg/ml DS-PG + 20 μg/ml LN stripes.
Setting [11] is: 0.12 mg/ml KS/CS-PG + LN stripes.
Where [12] appears, read: 0.25 mg/ml KS/CS-PG + LN stripes.
The mark [13] stands for this setting: 0.5 mg/ml KS/CS-PG + LN stripes.
The mark [14] stands for this setting: 1.0 mg/ml KS/CS-PG + LN stripes.
[15] abbreviates: 2.7 mg/ml KS/CS-PG + LN stripes.

The source of these data is US6756362B2, “Methods and compositions based on inhibition of cell invasion and fibrosis by anionic polymers” (priority 1991, dated 2004).

Turning to Dermatan sulfate proteoglycan [DS-PG], the “DS-PG Effect on Adhesion, Migration and Invasion” value (“DS-PG Effect on Adhesion” below) is listed as “+” in experiment [1] (setting [7]); “+/−” in experiment [1] (setting [8]); “−” in experiment [1] (setting [9]); “−” in experiment [1] (setting [10]); “+/−” in experiment [2] (setting [7]); “+/−” in experiment [2] (setting [8]). Also, the “DS-PG Effect on Adhesion” value was “−” in experiment [2] (setting [9]); “−” in experiment [2] (setting [10]); “+” in experiment [3] (setting [7]); “+/−” in experiment [3] (setting [8]); “+/−” in experiment [3] (setting [9]); “−” in experiment [3] (setting [10]). Further, the “DS-PG Effect on Adhesion” value in experiment [4] (setting [7]) was “+”; in experiment [4] (setting [8]), “+/−”; in experiment [4] (setting [9]), “−”; in experiment [4] (setting [10]) it was “−”; in experiment [5] (setting [7]) it was “+”; in experiment [5] (setting [8]) it was “+”. Further, the “DS-PG Effect on Adhesion” value in experiment [5] (setting [9]) and in experiment [5] (setting [10]) was “−” throughout. Also, the “stability of clear stripes (inhibition of C6 cells)” value in experiment [4] (0.8 mg/ml DS-PG, followed up to 6 days) is on record as not below 4 days.
With dextran [reference compound], the “TOTAL SCORE 4 WEEKS” value in experiment [6] is recorded as 10.0 ± 1.2.
dextran sulfate: in experiment [6], the “TOTAL SCORE 4 WEEKS” value came out at 1.8 ± 0.9.
With “keratan sulfate/chrondroitin sulfate-proteoglycans [KS/CS-PG]”, the “Effect of KS/CS-PG on Cell Migration” value is “+” in experiment [1] (setting [11]); “+/−” in experiment [1] (setting [12]); “+/−” in experiment [1] (setting [13]); “+/−” in experiment [1] (setting [14]); “−” in experiment [1] (setting [15]); “+” in experiment [2] (setting [12]). Besides, the “Effect of KS/CS-PG on Cell Migration” value in experiment [2] (setting [13]) is listed as “+/−”; in experiment [2] (setting [14]), “+/−”; in experiment [2] (setting [15]), “+/−”; in experiment [3] (setting [11]) it was “+”; in experiment [3] (setting [12]) it was “+/−”; in experiment [3] (setting [13]), “+/−”. Besides, the “Effect of KS/CS-PG on Cell Migration” value in experiment [3] (setting [14]) is recorded as “+/−”; in experiment [3] (setting [15]), “−”; in experiment [4] (setting [12]), “+”; in experiment [4] (setting [13]), “+”; in experiment [4] (setting [14]), “+”; in experiment [4] (setting [15]), “+/−”. Also, the “Effect of KS/CS-PG on Cell Migration” value was “+” in experiment [5] (setting [12]), “+” in experiment [5] (setting [13]), “+” in experiment [5] (setting [14]) and “+/−” in experiment [5] (setting [15]). For the same substance, the “time by which C6 overcame inhibition” value in experiment [4] (2.7 mg/ml KS/CS-PG, following plating) is not above 48 h.
